What all share (test): Kinase selectivity, scanMAX Kinase assay panel (DiscoverX), % control at 1 uM
Holding throughout (type): binding

The target in test [1] is T1, scanMAX Kinase assay panel (Homo sapiens, UniProt O14733).
T1 construct: purchased DiscoverX
T1 sequence (O14733 1-419): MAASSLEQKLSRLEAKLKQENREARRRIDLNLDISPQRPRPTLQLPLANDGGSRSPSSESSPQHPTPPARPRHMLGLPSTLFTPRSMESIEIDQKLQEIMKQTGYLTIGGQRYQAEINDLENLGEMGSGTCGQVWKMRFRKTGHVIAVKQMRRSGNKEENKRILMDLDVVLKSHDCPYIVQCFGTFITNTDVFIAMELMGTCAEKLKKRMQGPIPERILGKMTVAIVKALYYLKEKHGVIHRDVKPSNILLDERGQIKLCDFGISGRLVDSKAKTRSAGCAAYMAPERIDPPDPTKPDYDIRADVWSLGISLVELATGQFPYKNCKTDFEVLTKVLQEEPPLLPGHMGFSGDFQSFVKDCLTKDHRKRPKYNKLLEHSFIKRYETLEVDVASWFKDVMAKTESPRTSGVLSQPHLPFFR
Conditions: MKK7; 1 uM; read-out: Percent Control (%). Put shortly:
(§1)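 Compounds were tested at 1 uM in DMSO against each enzyme in the panel. Percent control was calculated as (compound − positive control)/(negative control − positive control) × 100, and a compound was scored active on a kinase when this value fell below 35.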

The target of test [2] is T2, scanMAX Kinase assay panel (Homo sapiens, UniProt P00519, M351T).
T2 construct: purchased DiscoverX
Conditions: ABL1 (M351T)-phosphorylated; 1 uM; read-out: Percent Control (%). Put shortly: as §1

Test [3] addresses T3, scanMAX Kinase assay panel (Homo sapiens, UniProt P00533, DEL752-759).
T3 construct: purchased DiscoverX
Conditions: EGFR (S752-I759del); 1 uM; read-out: Percent Control (%). In outline: as §1

Test [4] concerns the target T4, scanMAX Kinase assay panel (Homo sapiens, UniProt P08631).
T4 construct: purchased DiscoverX
Conditions: HCK; 1 uM; read-out: Percent Control (%). Put shortly: as §1

Test [5] concerns the target T5, scanMAX Kinase assay panel (Homo sapiens, UniProt P42685).
T5 construct: purchased DiscoverX
Conditions: FRK; 1 uM; read-out: Percent Control (%). In outline: as §1

In test [6] the target is T6, scanMAX Kinase assay panel (Homo sapiens, UniProt P46734).
T6 construct: purchased DiscoverX
T6 sequence (P46734 1-347): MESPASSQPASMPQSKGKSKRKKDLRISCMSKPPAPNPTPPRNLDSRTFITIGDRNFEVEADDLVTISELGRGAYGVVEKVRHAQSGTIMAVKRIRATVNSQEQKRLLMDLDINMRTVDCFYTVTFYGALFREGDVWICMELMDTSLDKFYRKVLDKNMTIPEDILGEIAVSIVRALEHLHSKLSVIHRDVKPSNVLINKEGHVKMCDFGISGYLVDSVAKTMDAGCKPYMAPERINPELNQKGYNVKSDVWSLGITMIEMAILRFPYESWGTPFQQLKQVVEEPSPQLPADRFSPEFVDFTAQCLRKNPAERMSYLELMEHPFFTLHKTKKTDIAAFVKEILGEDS
Conditions: MEK3; 1 uM; read-out: Percent Control (%). In outline: as §1

Test [7] deals with T7, scanMAX Kinase assay panel (Homo sapiens, UniProt P48730).
T7 construct: purchased DiscoverX
T7 sequence (P48730 whole entry): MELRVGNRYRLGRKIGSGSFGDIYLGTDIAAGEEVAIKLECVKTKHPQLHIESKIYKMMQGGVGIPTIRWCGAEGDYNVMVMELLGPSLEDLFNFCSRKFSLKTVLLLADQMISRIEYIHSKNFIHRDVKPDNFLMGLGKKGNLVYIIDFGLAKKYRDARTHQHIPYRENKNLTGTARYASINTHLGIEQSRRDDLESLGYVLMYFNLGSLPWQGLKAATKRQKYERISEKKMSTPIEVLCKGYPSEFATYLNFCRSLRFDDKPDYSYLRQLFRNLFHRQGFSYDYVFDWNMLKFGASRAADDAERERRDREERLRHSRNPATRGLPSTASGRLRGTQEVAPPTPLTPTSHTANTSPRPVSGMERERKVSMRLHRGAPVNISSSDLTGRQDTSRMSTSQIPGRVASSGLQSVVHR
Conditions: CSNK1D; 1 uM; read-out: Percent Control (%). In outline: as §1

Test [8] addresses T8, scanMAX Kinase assay panel (Homo sapiens, UniProt P49841).
T8 construct: purchased DiscoverX
Conditions: GSK3B; 1 uM; read-out: Percent Control (%). In outline:
as §1

In test [9] the target is T9, scanMAX Kinase assay panel (Homo sapiens, UniProt P78356).
T9 construct: purchased DiscoverX
T9 sequence (P78356 1-416): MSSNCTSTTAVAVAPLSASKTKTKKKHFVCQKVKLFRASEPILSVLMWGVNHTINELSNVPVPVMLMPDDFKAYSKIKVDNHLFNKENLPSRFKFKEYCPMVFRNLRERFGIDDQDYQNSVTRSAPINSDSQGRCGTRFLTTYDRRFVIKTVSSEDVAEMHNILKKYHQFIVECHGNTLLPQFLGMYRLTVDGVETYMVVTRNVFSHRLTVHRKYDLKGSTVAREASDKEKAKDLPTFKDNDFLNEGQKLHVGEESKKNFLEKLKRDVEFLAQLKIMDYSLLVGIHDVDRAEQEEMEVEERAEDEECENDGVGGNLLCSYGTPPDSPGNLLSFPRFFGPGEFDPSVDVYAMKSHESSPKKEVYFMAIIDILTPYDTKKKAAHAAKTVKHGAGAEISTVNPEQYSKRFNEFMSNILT
Conditions: PIP5K2B; 1 uM; read-out: Percent Control (%). Put shortly: as §1

The target in test [10] is T10, scanMAX Kinase assay panel (Homo sapiens, UniProt Q16584).
T10 construct: purchased DiscoverX
T10 sequence (Q16584 whole entry): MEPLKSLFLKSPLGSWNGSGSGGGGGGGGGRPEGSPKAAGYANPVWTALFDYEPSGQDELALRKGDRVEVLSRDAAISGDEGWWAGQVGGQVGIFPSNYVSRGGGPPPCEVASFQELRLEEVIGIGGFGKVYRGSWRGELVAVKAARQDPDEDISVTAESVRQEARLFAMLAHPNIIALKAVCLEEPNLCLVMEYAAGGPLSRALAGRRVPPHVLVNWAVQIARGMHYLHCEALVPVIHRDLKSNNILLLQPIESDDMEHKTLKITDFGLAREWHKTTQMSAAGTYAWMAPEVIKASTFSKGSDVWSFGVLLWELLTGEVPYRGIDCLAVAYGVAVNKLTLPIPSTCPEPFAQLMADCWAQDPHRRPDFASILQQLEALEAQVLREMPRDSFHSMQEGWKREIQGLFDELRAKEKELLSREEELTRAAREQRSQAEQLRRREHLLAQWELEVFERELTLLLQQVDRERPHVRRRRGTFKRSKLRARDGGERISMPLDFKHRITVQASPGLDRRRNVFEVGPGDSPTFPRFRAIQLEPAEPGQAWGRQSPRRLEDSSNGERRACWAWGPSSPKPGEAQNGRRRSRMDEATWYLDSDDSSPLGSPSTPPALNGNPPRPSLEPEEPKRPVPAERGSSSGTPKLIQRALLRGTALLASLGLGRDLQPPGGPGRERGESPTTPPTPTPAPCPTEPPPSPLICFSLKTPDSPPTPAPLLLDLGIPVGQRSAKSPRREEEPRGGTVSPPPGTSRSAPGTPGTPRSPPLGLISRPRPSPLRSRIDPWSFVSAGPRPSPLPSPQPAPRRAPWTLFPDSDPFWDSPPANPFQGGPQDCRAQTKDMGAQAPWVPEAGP
Conditions: MLK3; 1 uM; read-out: Percent Control (%). Put shortly: as §1

The target in test [11] is T11, scanMAX Kinase assay panel (Homo sapiens, UniProt Q2M2I8).
T11 construct: purchased DiscoverX
T11 sequence (Q2M2I8 whole entry): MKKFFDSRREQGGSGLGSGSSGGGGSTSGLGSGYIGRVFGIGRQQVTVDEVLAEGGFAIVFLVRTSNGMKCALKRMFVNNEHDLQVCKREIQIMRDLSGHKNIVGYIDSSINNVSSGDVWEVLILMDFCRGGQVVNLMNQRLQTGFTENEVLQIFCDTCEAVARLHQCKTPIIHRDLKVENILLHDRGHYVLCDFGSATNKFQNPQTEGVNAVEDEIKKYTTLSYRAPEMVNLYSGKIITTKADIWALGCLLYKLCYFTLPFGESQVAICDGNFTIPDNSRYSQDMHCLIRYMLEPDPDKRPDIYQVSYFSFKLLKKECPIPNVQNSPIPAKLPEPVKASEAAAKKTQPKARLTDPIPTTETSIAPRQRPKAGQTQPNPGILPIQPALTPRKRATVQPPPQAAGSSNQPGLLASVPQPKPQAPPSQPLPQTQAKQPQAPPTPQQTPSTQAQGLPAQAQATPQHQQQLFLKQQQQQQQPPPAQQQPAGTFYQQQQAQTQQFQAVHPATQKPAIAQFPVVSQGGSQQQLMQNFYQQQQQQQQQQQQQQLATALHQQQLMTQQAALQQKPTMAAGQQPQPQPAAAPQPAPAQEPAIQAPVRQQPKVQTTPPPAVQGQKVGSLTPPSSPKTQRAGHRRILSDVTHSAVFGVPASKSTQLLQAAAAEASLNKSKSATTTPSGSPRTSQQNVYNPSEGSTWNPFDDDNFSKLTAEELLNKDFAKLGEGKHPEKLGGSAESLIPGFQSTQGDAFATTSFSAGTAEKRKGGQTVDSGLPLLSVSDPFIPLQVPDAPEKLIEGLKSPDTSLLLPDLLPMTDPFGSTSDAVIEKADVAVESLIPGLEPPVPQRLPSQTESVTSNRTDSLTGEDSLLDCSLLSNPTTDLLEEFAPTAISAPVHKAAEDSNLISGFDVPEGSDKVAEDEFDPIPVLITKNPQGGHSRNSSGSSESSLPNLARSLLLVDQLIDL
Conditions: AAK1; 1 uM; read-out: Percent Control (%). Put shortly:
as §1

Test [12] concerns the target T12, scanMAX Kinase assay panel (Homo sapiens, UniProt Q96D53).
T12 construct: purchased DiscoverX
T12 sequence (Q96D53 1-544): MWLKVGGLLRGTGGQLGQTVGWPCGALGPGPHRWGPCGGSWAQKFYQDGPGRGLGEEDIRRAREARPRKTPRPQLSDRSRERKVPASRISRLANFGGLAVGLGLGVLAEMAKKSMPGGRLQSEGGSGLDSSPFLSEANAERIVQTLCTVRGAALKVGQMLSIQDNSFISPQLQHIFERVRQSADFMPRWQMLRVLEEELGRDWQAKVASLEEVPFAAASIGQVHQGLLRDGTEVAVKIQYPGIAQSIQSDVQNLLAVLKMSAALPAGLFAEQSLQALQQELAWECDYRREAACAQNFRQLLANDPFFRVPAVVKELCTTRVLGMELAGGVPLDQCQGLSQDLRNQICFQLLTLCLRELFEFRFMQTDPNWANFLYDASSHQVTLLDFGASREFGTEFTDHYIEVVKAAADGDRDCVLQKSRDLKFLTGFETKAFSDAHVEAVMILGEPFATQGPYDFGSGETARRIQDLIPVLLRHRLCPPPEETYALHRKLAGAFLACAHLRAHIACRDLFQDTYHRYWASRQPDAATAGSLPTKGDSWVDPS
Conditions: ADCK4; 1 uM; read-out: Percent Control (%). In outline: as §1

From US10870647B2, “Imidazopyridine derivative, method for preparing same, and pharmaceutical composition containing same as active ingredient for preventing or treating cancer” (DAEGU-GYEONGBUK MEDICAL INNOVATION FOUNDATION, priority 2016, dated 2020) come the findings set out here.

T3 sequence (P00533 with tags, fused parts or gaps DEL752-759): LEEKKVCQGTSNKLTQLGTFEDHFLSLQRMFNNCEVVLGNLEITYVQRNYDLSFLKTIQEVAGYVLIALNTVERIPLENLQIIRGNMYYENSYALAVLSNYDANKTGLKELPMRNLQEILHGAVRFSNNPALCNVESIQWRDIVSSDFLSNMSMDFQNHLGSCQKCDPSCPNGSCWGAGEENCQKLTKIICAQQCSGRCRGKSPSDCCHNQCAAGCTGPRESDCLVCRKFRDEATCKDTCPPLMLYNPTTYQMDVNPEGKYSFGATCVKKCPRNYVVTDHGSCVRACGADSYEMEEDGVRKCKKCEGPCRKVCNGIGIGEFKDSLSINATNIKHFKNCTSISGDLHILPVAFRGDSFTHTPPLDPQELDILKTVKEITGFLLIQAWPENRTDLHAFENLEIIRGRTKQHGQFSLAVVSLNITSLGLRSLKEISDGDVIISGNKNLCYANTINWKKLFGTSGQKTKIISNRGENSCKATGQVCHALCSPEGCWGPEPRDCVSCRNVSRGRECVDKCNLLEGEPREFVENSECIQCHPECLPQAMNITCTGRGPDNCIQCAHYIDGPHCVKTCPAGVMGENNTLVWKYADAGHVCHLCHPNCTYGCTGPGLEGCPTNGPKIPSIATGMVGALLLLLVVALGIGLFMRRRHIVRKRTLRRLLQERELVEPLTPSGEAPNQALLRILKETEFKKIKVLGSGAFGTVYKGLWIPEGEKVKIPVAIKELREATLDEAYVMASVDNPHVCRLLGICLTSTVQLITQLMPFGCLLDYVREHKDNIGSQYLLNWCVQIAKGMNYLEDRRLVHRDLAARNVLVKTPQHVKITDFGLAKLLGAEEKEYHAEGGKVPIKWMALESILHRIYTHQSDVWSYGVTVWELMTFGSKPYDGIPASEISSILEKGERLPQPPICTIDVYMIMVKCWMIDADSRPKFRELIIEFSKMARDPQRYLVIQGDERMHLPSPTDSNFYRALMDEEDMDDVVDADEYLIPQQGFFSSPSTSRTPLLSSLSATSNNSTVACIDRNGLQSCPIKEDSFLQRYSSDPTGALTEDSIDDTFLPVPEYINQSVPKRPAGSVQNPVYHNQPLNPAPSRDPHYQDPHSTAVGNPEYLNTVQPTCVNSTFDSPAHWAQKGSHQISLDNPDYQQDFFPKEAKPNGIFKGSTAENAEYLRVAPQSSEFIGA
T5 sequence (P42685 whole entry): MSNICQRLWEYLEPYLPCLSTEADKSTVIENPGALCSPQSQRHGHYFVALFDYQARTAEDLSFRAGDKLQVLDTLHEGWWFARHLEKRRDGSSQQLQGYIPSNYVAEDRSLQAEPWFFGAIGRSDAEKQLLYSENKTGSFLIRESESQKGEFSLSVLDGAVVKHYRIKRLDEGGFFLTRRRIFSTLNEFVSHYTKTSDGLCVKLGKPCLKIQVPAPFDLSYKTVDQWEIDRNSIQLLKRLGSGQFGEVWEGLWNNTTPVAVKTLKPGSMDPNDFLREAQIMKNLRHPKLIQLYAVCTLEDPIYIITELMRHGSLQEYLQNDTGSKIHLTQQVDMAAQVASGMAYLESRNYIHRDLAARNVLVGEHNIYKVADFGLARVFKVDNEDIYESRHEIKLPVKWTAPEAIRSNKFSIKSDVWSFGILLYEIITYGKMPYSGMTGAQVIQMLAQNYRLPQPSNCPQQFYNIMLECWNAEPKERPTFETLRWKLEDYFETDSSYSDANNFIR
T8 sequence (P49841 whole entry): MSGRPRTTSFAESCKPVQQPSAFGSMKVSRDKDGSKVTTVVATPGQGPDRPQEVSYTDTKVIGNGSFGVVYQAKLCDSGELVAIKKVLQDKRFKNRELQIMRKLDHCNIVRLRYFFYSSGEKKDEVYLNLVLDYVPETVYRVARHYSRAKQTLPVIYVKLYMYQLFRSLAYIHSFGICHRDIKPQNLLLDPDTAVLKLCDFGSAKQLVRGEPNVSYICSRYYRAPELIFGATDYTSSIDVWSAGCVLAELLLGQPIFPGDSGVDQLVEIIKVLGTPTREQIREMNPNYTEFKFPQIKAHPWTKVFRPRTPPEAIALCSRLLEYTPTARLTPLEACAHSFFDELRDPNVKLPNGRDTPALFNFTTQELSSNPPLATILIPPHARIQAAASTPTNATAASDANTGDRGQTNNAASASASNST
T4 sequence (P08631 whole entry): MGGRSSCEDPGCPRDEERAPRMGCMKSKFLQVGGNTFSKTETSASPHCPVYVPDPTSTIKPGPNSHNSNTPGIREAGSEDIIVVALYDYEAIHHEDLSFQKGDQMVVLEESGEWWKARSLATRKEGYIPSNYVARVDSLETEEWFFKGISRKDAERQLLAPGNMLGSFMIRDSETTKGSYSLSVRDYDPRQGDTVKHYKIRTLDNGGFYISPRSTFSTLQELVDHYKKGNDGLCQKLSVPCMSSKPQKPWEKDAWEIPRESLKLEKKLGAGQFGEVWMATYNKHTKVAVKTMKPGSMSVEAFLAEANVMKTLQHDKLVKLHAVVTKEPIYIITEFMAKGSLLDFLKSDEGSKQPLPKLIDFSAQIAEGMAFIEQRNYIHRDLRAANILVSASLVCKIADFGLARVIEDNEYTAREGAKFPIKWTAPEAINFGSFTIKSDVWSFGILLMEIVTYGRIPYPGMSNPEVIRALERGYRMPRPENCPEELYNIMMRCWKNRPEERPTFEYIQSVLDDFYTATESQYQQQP

For the molecule `Cc1ccc(C(=O)Nc2ccc(CN3CCN(C)CC3)c(C(F)(F)F)c2)cc1C#Cc1cnc2c(Nc3cnn(C)c3)cccn12` [Example 1, 4-methyl-3-((8-((1-methyl-1H-pyrazol-4-yl)amino)imidazo[1,2-a]pyridin-3-yl)ethynyl)-N-(4-((4-methylpiperazin-1-yl)methyl)-3-(trifluoromethyl)phenyl)benzamide], the remaining binding at 1 µM came out at 90% in test [1]; 1% in test [2]; 7% in [3]; 0% in [4]; 2% in test [5]; 81% in [6]. Besides, the remaining binding at 1 µM in test [7] came out at 91%; in test [8] it was 79%; in test [9], 82%; in [10], 1%; in test [11], 64%; in [12], 88%.

For `Cc1cn(-c2cc(NC(=O)c3ccc(C)c(C#Cc4cnc5c(Nc6cnn(C)c6)cccn45)c3)cc(C(F)(F)F)c2)cn1` [Example 12, 4-methyl-N-(3-(4-methyl-1H-imidazol-1-yl)-5-(trifluoromethyl)phenyl)-3-((8-((1-methyl-1H-pyrazol-4-yl)amino)imidazo[1,2-a]pyridin-3-yl)ethynyl)benzamide], the remaining binding at 1 µM was 100% in test [1]; 11% in test [2]; 8% in test [3]; 1% in [4]; 14% in test [5]; 100% in test [6]. The remaining binding at 1 µM in [7] turned out to be 79%; in test [8] it was 85%; in test [9] it was 100%; in test [10], 14%; in [11] it was 85%; in [12], 95%.

Regarding `Cc1ccc(NC(=O)C2(C(=O)Nc3ccc(F)cc3)CC2)cc1C#Cc1cnc2c(Nc3cnn(C(C)C)c3)cccn12` [Example 78], the remaining binding at 1 µM was 99% in [1]; 59% in test [2]; 100% in [3]; 71% in [4]; 69% in [5]; 96% in test [6]. Also, the remaining binding at 1 µM was determined as 92% in test [7]; 96% in test [8]; 79% in test [9]; 94% in test [10]; 100% in [11]; 100% in test [12].
